Data as given in patent publication US10485235B2, “Aryloxypyrimidinyl ethers as herbicides” (FMC Corporation, priority 2015, dated 2019).

What was measured:
Assay type in all cases: in vivo
[1] = system: ragweed (common ragweed, Ambrosia elatior); experiment: Test A preemergence, ragweed; conditions: Ambrosia artemisiifolia, pre-emergence, 240 h, Preemergence, 0 to 100 scale (0 no effect, 100 complete control), read-out: Plant response rating, Ragweed; for pest or weed control at 31 g/ha: 31 g ai/ha; for pest or weed control at 125 g/ha: 125 g ai/ha
Outline: (§1)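 Ratings run 0–100, where 100 is complete control, and were scored visually against untreated plants about 10 days after treatment under greenhouse conditions. Formulated chemicals were sprayed either onto the soil surface after seeding (preemergence) or onto one- to two-leaf seedlings 2–10 cm high (postemergence).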

[2] = system: wheat (Triticum aestivum); experiment: Test A postemergence, wheat; conditions: Triticum aestivum, post-emergence, 240 h, postemergence, 0 to 100 scale, 0 is no effect, 100 is complete control, approximately 10 days, read-out: Plant response rating, Wheat; for plant injury at 31 g/ha: 31 g ai/ha; for plant injury at 125 g/ha: 125 g ai/ha
Outline: as §1

[3] = system: pigweed (Amaranthus retroflexus); experiment: Test A preemergence, pigweed; conditions: Amaranthus retroflexus, pre-emergence, 240 h, Preemergence, 0 to 100 scale (0 no effect, 100 complete control), read-out: Plant response rating, Pigweed; for pest or weed control at 31 g/ha: 31 g ai/ha; for pest or weed control at 125 g/ha: 125 g ai/ha
Outline: as §1

[4] = system: barnyardgrass (Echinochloa crus-galli); experiment: Test A preemergence, barnyardgrass; conditions: Echinochloa crus-galli, pre-emergence, 240 h, Preemergence, 0 to 100 scale (0 no effect, 100 complete control), read-out: Plant response rating, Barnyardgrass; for pest or weed control at 125 g/ha: 125 g ai/ha
Outline: as §1

corn (Zea mays) = experiment: Test A postemergence, corn; conditions: Zea mays, post-emergence, 240 h, postemergence, 0 to 100 scale, 0 is no effect, 100 is complete control, approximately 10 days; for Corn plant response rating (crop injury, 0 = no effect, 100 = complete kill) at 31 g/ha: 31 g ai/ha; for Corn plant response rating (crop injury, 0 = no effect, 100 = complete kill) at 125 g/ha: 125 g ai/ha
Outline: as §1

rice (Oryza sativa) = experiment: Test B flooded paddy test, rice; conditions: Oryza sativa; 250 g ai/ha, Flood; visual rating after 13 to 15 days; scale 0 to 100, 0 is no effect, 100 is complete control; read-out: Plant response rating, Rice
Outline: (§2)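 Visual injury scored 0 (no effect) to 100 (complete control) relative to controls 13-15 days after treatment in greenhouse. Treatment: test compound added into paddy water of pots flooded 3 cm over soil, holding 2-leaf-stage plants; water level kept constant.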

[5] = system: galium (catchweed bedstraw, Galium aparine); experiment: Test A postemergence, galium; conditions: Galium, post-emergence, 240 h, postemergence, 0 to 100 scale, 0 is no effect, 100 is complete control, approximately 10 days, read-out: Plant response rating, Galium; for pest or weed control at 31 g/ha: 31 g ai/ha; for pest or weed control at 125 g/ha: 125 g ai/ha
Outline: as §1

[6] = system: foxtail, giant (giant foxtail, Setaria faberii); experiment: Test A preemergence, giant foxtail; conditions: Setaria faberi, pre-emergence, 240 h, Preemergence, 0 to 100 scale (0 no effect, 100 complete control), read-out: Plant response rating, Foxtail, Giant; for pest or weed control at 31 g/ha: 31 g ai/ha; for pest or weed control at 125 g/ha: 125 g ai/ha
Outline: as §1

kochia (Kochia scoparia) [7] = experiment: Test A postemergence, kochia; conditions: Bassia scoparia, post-emergence, 240 h, postemergence, 0 to 100 scale, 0 is no effect, 100 is complete control, approximately 10 days, read-out: Plant response rating, Kochia; for pest or weed control at 31 g/ha: 31 g ai/ha; for pest or weed control at 125 g/ha: 125 g ai/ha
Outline: as §1

[8] = system: pigweed (Amaranthus retroflexus); experiment: Test A postemergence, pigweed; conditions: Amaranthus retroflexus, post-emergence, 240 h, postemergence, 0 to 100 scale, 0 is no effect, 100 is complete control, approximately 10 days, read-out: Plant response rating, Pigweed; for pest or weed control at 31 g/ha: 31 g ai/ha; for pest or weed control at 125 g/ha: 125 g ai/ha
Outline: as §1

[9] = system: barnyardgrass (Echinochloa crus-galli); experiment: Test B flooded paddy test, barnyardgrass; conditions: Echinochloa crus-galli; 250 g ai/ha, Flood; visual rating after 13 to 15 days; scale 0 to 100, 0 is no effect, 100 is complete control; read-out: Plant response rating, Barnyardgrass
Outline: as §2

[10] = system: ducksalad (Heteranthera limosa); experiment: Test B flooded paddy test, ducksalad; conditions: Heteranthera limosa; 250 g ai/ha, Flood; visual rating after 13 to 15 days; scale 0 to 100, 0 is no effect, 100 is complete control; read-out: Plant response rating, Ducksalad
Outline: as §2

[11] = system: sedge, umbrella (small-flower umbrella sedge, Cyperus difformis); experiment: Test B flooded paddy test, umbrella sedge; conditions: Cyperus difformis; 250 g ai/ha, Flood; visual rating after 13 to 15 days; scale 0 to 100, 0 is no effect, 100 is complete control; read-out: Plant response rating, Sedge, Umbrella
Outline: as §2

kochia (Kochia scoparia) [12] = experiment: Test A preemergence, kochia; conditions: Bassia scoparia, pre-emergence, 240 h, Preemergence, 0 to 100 scale (0 no effect, 100 complete control), read-out: Plant response rating, Kochia; for pest or weed control at 31 g/ha: 31 g ai/ha; for pest or weed control at 125 g/ha: 125 g ai/ha
Outline: as §1

[13] = system: foxtail, giant (giant foxtail, Setaria faberii); experiment: Test A postemergence, giant foxtail; conditions: Setaria faberi, post-emergence, 240 h, postemergence, 0 to 100 scale, 0 is no effect, 100 is complete control, approximately 10 days, read-out: Plant response rating, Foxtail, Giant; for pest or weed control at 31 g/ha: 31 g ai/ha; for pest or weed control at 125 g/ha: 125 g ai/ha
Outline: as §1

SMILES	pest or weed control at 31 g/ha [1] [%]	pest or weed control at 125 g/ha [1] [%]	plant injury at 31 g/ha [2] [%]	plant injury at 125 g/ha [2] [%]	pest or weed control at 31 g/ha [3] [%]	pest or weed control at 125 g/ha [3] [%]	pest or weed control at 125 g/ha [4] [%]	Corn plant response rating (crop injury, 0 = no effect, 100 = complete kill) at 31 g/ha (corn (Zea mays)) [%]	Corn plant response rating (crop injury, 0 = no effect, 100 = complete kill) at 125 g/ha (corn (Zea mays)) [%]	plant injury at 250 g/ha (rice (Oryza sativa)) [%]	pest or weed control at 31 g/ha [5] [%]	pest or weed control at 125 g/ha [5] [%]	pest or weed control at 31 g/ha [6] [%]	pest or weed control at 125 g/ha [6] [%]	pest or weed control at 31 g/ha (kochia (Kochia scoparia) [7]) [%]	pest or weed control at 125 g/ha (kochia (Kochia scoparia) [7]) [%]	pest or weed control at 31 g/ha [8] [%]	pest or weed control at 125 g/ha [8] [%]	pest or weed control at 250 g/ha [9] [%]	pest or weed control at 250 g/ha [10] [%]	further results
N#Cc1cccc(Oc2ncc(Cl)cn2)c1OCCC(F)(F)F [Compound 23, 3-[(5-chloro-2-pyrimidinyl)oxy]-2-(3,3,3-trifluoropropoxy)benzonitrile]	0	90	20	70	100	100	100	10	90	30	60	90	90	100	90	100	100	100	50	100	pest or weed control at 31 g/ha ([4]; 31 g ai/ha): 70%; pest or weed control at 250 g/ha [11]: 100%; pest or weed control at 31 g/ha (kochia (Kochia scoparia) [12]): 100%; pest or weed control at 125 g/ha (kochia (Kochia scoparia) [12]): 100%; pest or weed control at 31 g/ha [13]: 20%; pest or weed control at 125 g/ha [13]: 90%
FC(F)(F)COc1c(I)cccc1Oc1ncc(Cl)cn1 [Compound 65]	0	0	0	0	50	100	70	10	20	0	30	50	30	100	80	100	70	100	20	100	pest or weed control at 250 g/ha [11]: 90%; pest or weed control at 31 g/ha (kochia (Kochia scoparia) [12]): 20%; pest or weed control at 125 g/ha (kochia (Kochia scoparia) [12]): 90%; pest or weed control at 31 g/ha [13]: 10%; pest or weed control at 125 g/ha [13]: 50%
